Assay [1] can be described thus: Displacement of [125I]NT from neurotensin receptor in human HT-29 cells. It counts as cell-based.
The subject of another assay is HT-29. The experiment in a line: Antagonist activity at neurotensin receptor in human HT-29 cells assessed as effect on NT-induced intracellular Ca2+ increase by spectrofluorimetry. It counts as functional, cell-based.

In ChEMBL document CHEMBL1148091, “Cyclopsychotride A, a biologically active, 31-residue cyclic peptide isolated from Psychotria longipes” (J Nat Prod, 1994) one finds IC50 and Activity data, which are given here for one compound.

Usually IC50 stands for the concentration at which inhibition is half-maximal. Read a high IC50 as weaker potency in that assay. The compound `CC[C@H](C)[C@@H]1NC(=O)[C@@H]2CCCN2C(=O)[C@H](CS)NC(=O)CNC(=O)[C@H](CCC(=O)O)NC(=O)[C@H](CO)NC(=O)[C@H](CS)NC(=O)[C@H](C(C)C)NC(=O)[C@H](Cc2ccccc2)NC(=O)[C@H]([C@@H](C)CC)NC(=O)[C@@H]2CCCN2C(=O)[C@H](CS)NC(=O)[C@H]([C@H](C)O)NC(=O)[C@H](C(C)C)NC(=O)[C@H]([C@H](C)O)NC(=O)[C@H](C)NC(=O)[C@H](CC(C)C)NC(=O)[C@H](CC(C)C)NC(=O)CNC(=O)[C@H](CS)NC(=O)[C@H](CO)NC(=O)[C@H](CS)NC(=O)[C@H](CCCCN)NC(=O)[C@H](CO)NC(=O)[C@H](CCCCN)NC(=O)[C@H](C(C)C)NC(=O)[C@H](CS)NC(=O)[C@H](Cc2ccc(O)cc2)NC(=O)[C@H](CCCCN)NC(=O)[C@H](CC(N)=O)NC(=O)[C@H](CO)NC1=O` [CYCLOPSYCHOTRIDE A] yielded an IC50 in assay [1] of 3 µM. The Activity entry in the assay on HT-29 is “Dose-dependent effect”.
